Results: patent publication US10738057B2, “Tertiary alcohols as PI3K-γ inhibitors” (Incyte Corporation, priority 2017, dated 2020)
Counter-ions that a name gives are not always drawn. Like-named read-outs stand apart in the source and are kept apart here.

Legend:
[1] = biological target: PI3Kγ (p110γ) Recombinant Human Protein (Homo sapiens (Human), UniProt P48736); assay: PI3K-γ scintillation proximity assay; assay type: biochemical; conditions: 20 μM PIP2, 2 μM ATP, 13 nM PI3Kγ, 120 min, room temperature
Sequence of PI3Kγ (p110γ) Recombinant Human Protein (P48736 whole entry): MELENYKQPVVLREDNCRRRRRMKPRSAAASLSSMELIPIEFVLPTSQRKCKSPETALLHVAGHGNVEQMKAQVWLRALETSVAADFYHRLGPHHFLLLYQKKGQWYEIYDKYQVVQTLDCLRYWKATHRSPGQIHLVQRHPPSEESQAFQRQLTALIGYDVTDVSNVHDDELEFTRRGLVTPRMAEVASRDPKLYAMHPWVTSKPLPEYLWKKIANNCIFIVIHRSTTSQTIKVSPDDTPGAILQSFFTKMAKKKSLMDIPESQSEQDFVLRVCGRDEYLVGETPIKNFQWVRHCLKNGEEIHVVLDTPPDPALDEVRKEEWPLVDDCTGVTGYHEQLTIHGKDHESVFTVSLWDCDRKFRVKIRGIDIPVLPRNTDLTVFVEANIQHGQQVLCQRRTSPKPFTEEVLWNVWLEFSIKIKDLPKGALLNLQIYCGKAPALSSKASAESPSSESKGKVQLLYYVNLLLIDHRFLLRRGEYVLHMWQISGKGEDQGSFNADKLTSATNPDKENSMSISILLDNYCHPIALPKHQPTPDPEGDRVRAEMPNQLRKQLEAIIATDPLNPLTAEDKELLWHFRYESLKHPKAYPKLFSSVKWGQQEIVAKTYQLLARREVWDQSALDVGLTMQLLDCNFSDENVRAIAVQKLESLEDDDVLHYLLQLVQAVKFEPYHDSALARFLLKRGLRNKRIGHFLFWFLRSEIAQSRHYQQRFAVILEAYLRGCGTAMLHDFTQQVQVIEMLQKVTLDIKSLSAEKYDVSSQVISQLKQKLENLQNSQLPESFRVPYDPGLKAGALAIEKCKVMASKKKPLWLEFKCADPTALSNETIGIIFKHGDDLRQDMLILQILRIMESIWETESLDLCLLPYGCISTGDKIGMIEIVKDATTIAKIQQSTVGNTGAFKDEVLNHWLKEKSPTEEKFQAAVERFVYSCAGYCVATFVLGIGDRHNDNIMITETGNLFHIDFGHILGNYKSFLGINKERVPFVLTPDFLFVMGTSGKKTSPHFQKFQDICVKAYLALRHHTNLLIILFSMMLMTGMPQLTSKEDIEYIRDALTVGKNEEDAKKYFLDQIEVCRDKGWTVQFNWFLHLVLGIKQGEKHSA
Description: Example B. PI3K-γ Scintillation Proximity Assay
[γ-^33P]ATP (10 mCi/mL) and Wheat Germ Agglutinin (WGA) YSi SPA Scintillation Beads was purchased from PerkinElmer (Waltham, Mass.). Lipid kinase substrate, D-myo-Phosphatidylinositol 4,5-bisphosphate (PtdIns(4,5)P2)D (+)-sn-1,2-di-O-octanoylglyceryl, 3-O-phospho linked (PIP2), CAS 204858-53-7, was purchased from Echelon Biosciences (Salt Lake City, Utah). PI3Kγ (p110γ) Recombinant Human Protein was purchased from Life technology (Grand Island, N.Y.). ATP, MgCl2, DTT, EDTA, MOPS and CHAPS were purchased from SigmaAldrich (St. Louis, Mo.).
(§1) The kinase reaction was conducted in polystyrene 384-well Greiner Bio-one white plate from Thermo Fisher Scientific in a final volume of 25 μL. Inhibitors were first diluted serially in DMSO and added to the plate wells before the addition of other reaction components. The final concentration of DMSO in the assay was 2%. The PI3Kγ assay was carried out at room temperature in 20 mM MOPS, pH 6.7, 10 mM MgCl2, 5 mM DTT and CHAPS 0.03%. Reactions were initiated by the addition of ATP, the final reaction mixture consisted of 20 μM PIP2, 2 μM ATP, 0.5 μCi [γ-^33P] ATP, 13 nM PI3Kγ. Reactions were incubated for 120 min and terminated by the addition of 40 μL SPA beads suspended in quench buffer: 163 mM potassium phosphate pH 7.8, 20% glycerol, 25 mM EDTA. The final concentration of SPA beads is 1.0 mg/mL. After the plate sealing, plates were shaken overnight at room temperature and centrifuged at 1500 rpm for 10 min, the radioactivity of the product was determined by scintillation counting on Topcount (Perkin-Elmer). IC50 determination was performed by fitting the curve of percent of the solvent control activity versus the log of the inhibitor concentration using the GraphPad Prism 6.0 software.

[2] = biological target: PI3Kδ (p110δ/p85α) Recombinant Human Protein (Homo sapiens (Human), UniProt O00329); assay: PI3Kδ scintillation proximity assay; assay type: biochemical; conditions: 20 μM PIP2, 2 μM ATP, 3.4 nM PI3Kδ, 120 min, room temperature; read-out: PI3Kδ IC50
Sequence of PI3Kδ (p110δ/p85α) Recombinant Human Protein (O00329 whole entry): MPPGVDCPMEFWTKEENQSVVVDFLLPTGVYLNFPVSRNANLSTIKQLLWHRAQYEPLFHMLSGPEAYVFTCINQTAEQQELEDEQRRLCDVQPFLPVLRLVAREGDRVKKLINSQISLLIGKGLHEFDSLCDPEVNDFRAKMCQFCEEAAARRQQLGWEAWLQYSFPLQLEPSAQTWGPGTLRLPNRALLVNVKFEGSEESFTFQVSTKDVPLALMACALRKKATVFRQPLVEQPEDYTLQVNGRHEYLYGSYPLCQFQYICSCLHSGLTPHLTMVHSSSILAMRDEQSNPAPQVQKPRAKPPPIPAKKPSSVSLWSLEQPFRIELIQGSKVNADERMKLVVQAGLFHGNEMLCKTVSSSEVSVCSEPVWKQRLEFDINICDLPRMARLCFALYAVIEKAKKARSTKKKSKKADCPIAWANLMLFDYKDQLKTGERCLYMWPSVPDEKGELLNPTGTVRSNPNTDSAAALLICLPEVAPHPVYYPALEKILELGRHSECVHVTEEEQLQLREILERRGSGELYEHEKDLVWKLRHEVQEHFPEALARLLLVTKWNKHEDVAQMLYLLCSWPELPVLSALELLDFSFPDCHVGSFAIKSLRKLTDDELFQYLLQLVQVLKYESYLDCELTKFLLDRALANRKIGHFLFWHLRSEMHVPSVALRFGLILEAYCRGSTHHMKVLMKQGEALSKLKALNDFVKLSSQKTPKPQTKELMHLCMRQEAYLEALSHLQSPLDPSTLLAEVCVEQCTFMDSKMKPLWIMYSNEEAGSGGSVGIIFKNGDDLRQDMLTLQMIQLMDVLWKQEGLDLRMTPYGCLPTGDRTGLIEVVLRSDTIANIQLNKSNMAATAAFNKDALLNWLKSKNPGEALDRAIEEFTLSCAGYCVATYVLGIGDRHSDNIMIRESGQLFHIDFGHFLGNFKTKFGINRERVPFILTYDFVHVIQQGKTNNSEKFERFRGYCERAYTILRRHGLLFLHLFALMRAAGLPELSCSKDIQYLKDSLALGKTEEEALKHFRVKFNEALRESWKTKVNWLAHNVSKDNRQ
Sequence of PI3Kδ (p110δ/p85α) Recombinant Human Protein (P27986 whole entry partner): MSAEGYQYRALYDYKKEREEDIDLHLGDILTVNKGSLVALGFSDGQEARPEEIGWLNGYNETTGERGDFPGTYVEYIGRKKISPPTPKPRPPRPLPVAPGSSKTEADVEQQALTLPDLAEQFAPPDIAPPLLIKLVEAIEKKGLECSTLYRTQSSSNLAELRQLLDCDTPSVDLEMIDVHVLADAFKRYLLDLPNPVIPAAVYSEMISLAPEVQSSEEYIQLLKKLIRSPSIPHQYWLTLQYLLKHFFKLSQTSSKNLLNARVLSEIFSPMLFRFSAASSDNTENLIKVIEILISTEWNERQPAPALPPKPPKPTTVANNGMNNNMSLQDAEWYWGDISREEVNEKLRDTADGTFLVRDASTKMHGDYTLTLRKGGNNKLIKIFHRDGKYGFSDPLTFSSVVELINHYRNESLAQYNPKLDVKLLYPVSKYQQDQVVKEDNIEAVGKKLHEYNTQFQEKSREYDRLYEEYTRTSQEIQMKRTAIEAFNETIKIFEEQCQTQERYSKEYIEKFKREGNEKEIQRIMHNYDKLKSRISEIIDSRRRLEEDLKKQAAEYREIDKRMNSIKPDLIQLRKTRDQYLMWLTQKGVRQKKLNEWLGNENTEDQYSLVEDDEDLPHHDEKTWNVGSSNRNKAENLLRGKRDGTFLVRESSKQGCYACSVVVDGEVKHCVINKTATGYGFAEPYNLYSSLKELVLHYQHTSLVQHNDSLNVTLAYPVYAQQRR
Method: PI3Kδ Scintillation Proximity Assay
[γ-^33P]ATP (10 mCi/mL) and Wheat Germ Agglutinin (WGA) YSi SPA Scintillation Beads was purchased from PerkinElmer (Waltham, Mass.). […] PI3Kδ (p110δ/p85α) Recombinant Human Protein was purchased from Eurofins (St Charles, Mo.). ATP, MgCl2, DTT, EDTA, MOPS and CHAPS were purchased from SigmaAldrich (St. Louis, Mo.).
as §1, with “PI3Kδ” for “PI3Kγ”, “ATP, 13 nM PI3Kγ. Reactions were incubated for 120 min and terminated by the addition of 40 μL SPA beads suspended in quench buffer: 163 mM potassium phosphate pH 7.8, 20% glycerol, 25 mM EDTA.” left out, “(PerkinElmer).” for “(Perkin-Elmer).”

[3] = system: Phosphorylated Ribosomal Protein S6 (RPS6) in THP-1 cells; assay: THP-1 RPS6 ELISA assay; assay type: cell-based, Human
Method: Example A. THP-1 RPS6 ELISA Assay
To measure the Phosphorylated Ribosomal Protein S6 (RPS6) in cell lysates, THP-1 cells (Human Acute Monocytic Leukemia) are purchased from ATCC (Manassas, Va.) and maintained in RPMI with 10% FBS (Gibco/Life Technologies, Carlsbad, Calif.). For the assay, THP-1 cells are serum starved overnight in RPMI, then plated in RPMI (2×10^5 cells/well in 90 μL) into 96-well flat-bottom tissue culture treated plates (Corning, Corning, N.Y.), in the presence or absence of a concentration range of test compounds. Covered plates are incubated for 2 hours at 37° C., 5% CO2 then treated with or without 10 nM MCP-1 (MYBioSource, San Diego, Calif.) for 15 minutes at 37° C., 5% CO2. Plates are centrifuged at 1600 RPM and supernatants are removed. Cells are lysed in Lysis Buffer (Cell Signaling, Danvers, Mass.) with Protease Inhibitor (Calbiochem/EMD, Germany), PMSF (Sigma, St Louis Mo.), HALTS (Thermo Fisher, Rockford, Ill.) for 30 min on wet ice. Cell lysates are frozen at −80° C. before testing. The lysates are tested in the Human/Mouse/Rat Phospho-RPS6 ELISA (R&D Systems, Inc. Minn, Minn.). The plate is measured using a microplate reader (SpectraMax M5—Molecular Devices, LLC Sunnyvale, Calif.) set to 450 nm with a wavelength correction of 540. IC50 determination is performed by fitting the curve of inhibitor percent inhibition versus the log of the inhibitor concentration using the GraphPad Prism 5.0 software.

[4] = THP-1 cells, serum starved, 2 h compound, 10 nM MCP-1 for 15 min, phospho-RPS6 ELISA, read-out: PI3Kγ_THP1_RPS6_ELISA IC50
[5] = Homo sapiens, THP-1, THP-1 cells, serum starved, 2 h compound, 10 nM MCP-1 for 15 min, phospho-RPS6 ELISA, read-out: PI3Kγ_THP1_RPS6_ELISA IC50
[6] = Homo sapiens, THP-1, read-out: PI3Kγ_THP1_RPS6_ELISA IC50 (nM)

Compound	IC50 [1]	IC50 [2]	IC50 [3, 4]	IC50 [3, 5]	IC50 [3, 6]
2-(3-(8-Amino-6-(3-methyl-1H-pyrazol-4-yl)imidazo[1,2-a]pyrazin-3-yl)-4-methylphenyl)-1,1-difluoropropan-2-ol, 1.2TFA [Example 47]	< 100 nM	< 100 nM	< 100 nM		
Cc1ccc(C(C)(O)CF)cc1-c1cnc2c(N)nc(C(F)(F)F)cn12 (racemic) [Example 24, 2-(3-(8-Amino-6-(trifluoromethyl)imidazo[1,2-a]pyrazin-3-yl)-4-methylphenyl)-1-fluoropropan-2-ol trifluoroacetate salt]	< 100 nM	500 to 2000 nM		500 to 1000 nM	
Cc1ccc(C(O)(CO)C(F)(F)F)cc1-c1cnc2c(N)nc(-c3cnn(C)c3)cn12 (racemic) [Example 69, 2-(3-(8-Amino-6-(1-methyl-1H-pyrazol-4-yl)imidazo[1,2-a]pyrazin-3-yl)-4-methylphenyl)-3,3,3-trifluoropropane-1,2-diol trifluoroacetate salt]					< 100 nM
Cc1ncc(-c2cn3c(-c4cc(C(O)(CO)C(F)(F)F)ccc4C)cnc3c(N)n2)s1 (racemic) [Example 70, 2-(3-(8-Amino-6-(2-methylthiazol-5-yl)imidazo[1,2-a]pyrazin-3-yl)-4-methylphenyl)-3,3,3-trifluoropropane-1,2-diol trifluoroacetate salt]					< 100 nM
Cc1ccc(C(O)(CO)C(F)(F)F)cc1-c1cnc2c(N)nc(-c3cnco3)cn12 (racemic) [Example 71, 2-(3-(8-Amino-6-(oxazol-5-yl)imidazo[1,2-a]pyrazin-3-yl)-4-methylphenyl)-3,3,3-trifluoropropane-1,2-diol trifluoroacetate salt]					< 100 nM
Cc1ccc(C(C)(O)C(F)(F)F)cc1-c1cnc2c(N)nc(C(F)(F)F)cn12 (single isomer, unassigned) [Example 5, 2-(3-(8-Amino-6-(trifluoromethyl)imidazo[1,2-a]pyrazin-3-yl)-4-methylphenyl)-1,1,1-trifluoropropan-2-ol]	< 100 nM	100 to 500 nM	500 to 1000 nM		
Cc1ccc(C(C)(O)C(F)(F)F)cc1-c1cnc2c(N)nc(C(F)(F)F)cn12 (single isomer, unassigned) [Example 6, 2-(3-(8-Amino-6-(trifluoromethyl)imidazo[1,2-a]pyrazin-3-yl)-4-methylphenyl)-1,1,1-trifluoropropan-2-ol]	< 100 nM	100 to 500 nM	100 to 500 nM		
Cc1ccc(C(C)(O)C(F)(F)F)cc1-c1cnc2c(N)nc(-c3ccnc(CO)c3)cn12 (single isomer, unassigned) [Example 11, 2-(3-(8-amino-6-(2-(hydroxymethyl)pyridin-4-yl)imidazo[1,2-a]pyrazin-3-yl)-4-methylphenyl)-1,1,1-trifluoropropan-2-ol]	< 100 nM	< 100 nM		100 to 500 nM	
Cc1ccc(C(C)(O)C(F)(F)F)cc1-c1cnc2c(N)nc(-c3ccnc(CO)c3)cn12 (single isomer, unassigned) [Example 12, 2-(3-(8-amino-6-(2-(hydroxymethyl)pyridin-4-yl)imidazo[1,2-a]pyrazin-3-yl)-4-methylphenyl)-1,1,1-trifluoropropan-2-ol]	< 100 nM	< 100 nM	< 100 nM		
CC(=O)NCC(O)(c1ccc(C)c(-c2cnc3c(N)nc(C(F)(F)F)cn23)c1)C(F)(F)F (stereo not drawn) [Example 211, N-(2-(3-(8-amino-6-(trifluoromethyl)imidazo[1,2-a]pyrazin-3-yl)-4-methylphenyl)-3,3,3-trifluoro-2-hydroxypropyl)acetamide trifluoroacetate]	< 100 nM	100 to 500 nM			
Cc1ccc(C(O)(CNC(=O)c2ccccc2)C(F)(F)F)cc1-c1cnc2c(N)nc(C(F)(F)F)cn12 (stereo not drawn) [Example 212, N-(2-(3-(8-amino-6-(trifluoromethyl)imidazo[1,2-a]pyrazin-3-yl)-4-methylphenyl)-3,3,3-trifluoro-2-hydroxypropyl)benzamide trifluoroacetate salt]	< 100 nM	100 to 500 nM			

Continued, in another order:

IC50 [1]	IC50 [2]	IC50 [3, 4]	IC50 [3, 5]	Compound	IC50 [3, 6]
			< 100 nM	Cc1ccc(C(O)(C(N)=O)C(F)(F)F)cc1-c1cnc2c(N)nc(C(C)(C)O)cn12 (single isomer, unassigned) [Example 255, 2-(3-(8-Amino-6-(2-hydroxypropan-2-yl)imidazo[1,2-a]pyrazin-3-yl)-4-methylphenyl)-3,3,3-trifluoro-2-hydroxypropanamide trifluoroacetate salt]	
			500 to 1000 nM	Cc1ccc(C(O)(C(N)=O)C(F)(F)F)cc1-c1cnc2c(N)nc(C(=O)NC34CCC(O)(CC3)C4)cn12 (single isomer, unassigned) [Example 260, 8-Amino-3-(5-(3-amino-1,1,1-trifluoro-2-hydroxy-3-oxopropan-2-yl)-2-methylphenyl)-N-(4-hydroxybicyclo[2.2.1]heptan-1-yl)imidazo[1,2-a]pyrazine-6-carboxamide trifluoroacetate salt]	
< 100 nM	100 to 500 nM			CCNC(=O)c1cn2c(-c3cc(C(O)(CNC(C)=O)C(F)(F)F)ccc3C)cnc2c(N)n1 (stereo not drawn) [Example 221, 3-(5-(3-acetamido-1,1,1-trifluoro-2-hydroxypropan-2-yl)-2-methylphenyl)-8-amino-N-ethylimidazo[1,2-a]pyrazine-6-carboxamide trifluoroacetate]	
100 to 500 nM	100 to 500 nM			Cc1ccc(C(C)(O)C(F)(F)F)cc1-c1cnc2c(N)nc(C(=O)NC34CCN(CC3)C4)cn12 (stereo not drawn) [Example 277, 8-Amino-N-(1-azabicyclo[2.2.1]heptan-4-yl)-3-(2-methyl-5-(1,1,1-trifluoro-2-hydroxypropan-2-yl)phenyl)imidazo[1,2-a]pyrazine-6-carboxamide trifluoroacetate salt]	
< 100 nM	100 to 500 nM			Cc1ccc(C(C)(O)C(F)(F)F)cc1-c1cnc2c(N)nc(C(=O)NC34COC(CO)(C3)C4)cn12 (stereo not drawn) [Example 279, 8-Amino-N-(1-(hydroxymethyl)-2-oxabicyclo[2.1.1]hexan-4-yl)-3-(2-methyl-5-(1,1,1-trifluoro-2-hydroxypropan-2-yl)phenyl)imidazo[1,2-a]pyrazine-6-carboxamide trifluoroacetate salt]	
